Experimental data: PMC11859928, “Design, Synthesis, and Antiproliferative Activity of Novel Indole/1,2,4-Triazole Hybrids as Tubulin Polymerization Inhibitors” (Pharmaceuticals, 2025)

Legend:
Test in all cases: NCI one-dose assay
HOP-92 = type: cell-based, human; settings: Homo sapiens, HOP-92, HOP-92, Non-small cell lung cancer, read-out: Cell growth inhibition %
786-0 = type: cell-based, human; settings: Homo sapiens, 786-0, 786-0, Renal cancer, read-out: Cell growth inhibition %
UO-31 = type: cell-based, human; settings: Homo sapiens, UO-31, UO-31, Renal cancer, read-out: Cell growth inhibition %
U251 = type: cell-based; settings: Homo sapiens, U-251, U251, CNS cancer, read-out: Cell growth inhibition %
ACHN = type: cell-based; settings: Homo sapiens, Renal cancer, read-out: Cell growth inhibition %
OVCAR-5 = type: cell-based; settings: Homo sapiens, OVCAR-5, Ovarian cancer, read-out: Cell growth inhibition %
SNB-19 = type: cell-based; settings: Homo sapiens, SNB-19, CNS cancer, read-out: Cell growth inhibition %
COLO 205 = type: cell-based; settings: Homo sapiens, COLO 205, Colon cancer, read-out: Cell growth inhibition %
DU-145 = type: cell-based; settings: Homo sapiens, DU-145, Prostate cancer, read-out: Cell growth inhibition %
HCT-116 = type: cell-based; settings: Homo sapiens, HCT-116, Colon cancer, read-out: Cell growth inhibition %
MALME-3M = type: cell-based; settings: Homo sapiens, Melanoma, read-out: Cell growth inhibition %
OVCAR-4 = type: cell-based; settings: Homo sapiens, OVCAR-4, Ovarian cancer, read-out: Cell growth inhibition %
HCC-2998 = type: cell-based; settings: Homo sapiens, HCC-2998, Colon cancer, read-out: Cell growth inhibition %
MCF7 = type: cell-based; settings: Homo sapiens, MCF7, Breast cancer, read-out: Cell growth inhibition %
TK-10 = type: cell-based; settings: Homo sapiens, TK-10, Renal cancer, read-out: Cell growth inhibition %
HOP-62 = type: cell-based; settings: Homo sapiens, HOP-62, Non-small cell lung cancer, read-out: Cell growth inhibition %
CCRF-CEM = type: cell-based; settings: Homo sapiens, Leukemia, read-out: Cell growth inhibition %
SK-MEL-28 = type: cell-based; settings: Homo sapiens, SK-MEL-28, Melanoma, read-out: Cell growth inhibition %
K-562 = type: cell-based; settings: Homo sapiens, K562, K-562, Leukemia, read-out: Cell growth inhibition %
KM12 = type: cell-based; settings: Homo sapiens, KM12, Colon cancer, read-out: Cell growth inhibition %
SN12C = type: cell-based; settings: Homo sapiens, Renal cancer, read-out: Cell growth inhibition %
SNB-75 = type: cell-based; settings: Homo sapiens, SNB-75, CNS cancer, read-out: Cell growth inhibition %
OVCAR-3 = type: cell-based; settings: Homo sapiens, OVCAR-3, Ovarian cancer, read-out: Cell growth inhibition %
CAKI-1 = type: cell-based; settings: Homo sapiens, CAKI-1, Renal cancer, read-out: Cell growth inhibition %
PC-3 = type: cell-based; settings: Homo sapiens, PC-3, Prostate cancer, read-out: Cell growth inhibition %
T-47D = type: cell-based; settings: Homo sapiens, T47D, Breast cancer, read-out: Cell growth inhibition %
HL-60(TB) = type: cell-based; settings: Homo sapiens, Leukemia, read-out: Cell growth inhibition %
SK-MEL-2 = type: cell-based; settings: Homo sapiens, SK-MEL-2, Melanoma, read-out: Cell growth inhibition %
UACC-257 = type: cell-based; settings: Homo sapiens, UACC-257, Melanoma, read-out: Cell growth inhibition %
NCI-H522 = type: cell-based; settings: Homo sapiens, NCI-H522, Non-small cell lung cancer, read-out: Cell growth inhibition %
NCI-H23 = type: cell-based; settings: Homo sapiens, NCI-H23, Non-small cell lung cancer, read-out: Cell growth inhibition %
RPMI-8226 = type: cell-based; settings: Homo sapiens, RPMI-8226, Leukemia, read-out: Cell growth inhibition %
SW-620 = type: cell-based; settings: Homo sapiens, SW-620, Colon cancer, read-out: Cell growth inhibition %
NCI-H322M = type: cell-based; settings: Homo sapiens, Non-small cell lung cancer, read-out: Cell growth inhibition %
NCI-H226 = type: cell-based; settings: Homo sapiens, NCI-H226, Non-small cell lung cancer, read-out: Cell growth inhibition %

O/N=C(\CSc1nnc(-c2c[nH]c3ccccc23)n1-c1ccccc1)c1ccc(Cl)cc1 [Compound 7j, (Z)-2-((5-(1H-Indol-3-yl)-4-phenyl-4H-1,2,4-triazol-3-yl)thio)-1-(4-chlorophenyl) Ethanone Oxime]
inhibition at 10 µM (HOP-92): 108% | inhibition at 10 µM (786-0): 65.9% | inhibition at 10 µM (UO-31): 65.6% | inhibition at 10 µM (U251): 69.5% | inhibition at 10 µM (ACHN): 96.7% | inhibition at 10 µM (OVCAR-5): 143% | inhibition at 10 µM (SNB-19): 82.6% | inhibition at 10 µM (COLO 205): 89.8% | inhibition at 10 µM (DU-145): 131% | inhibition at 10 µM (HCT-116): 99.3% | inhibition at 10 µM (MALME-3M): 88.9% | inhibition at 10 µM (OVCAR-4): 181% | inhibition at 10 µM (HCC-2998): 83% | inhibition at 10 µM (MCF7): 96.7% | inhibition at 10 µM (TK-10): 123% | inhibition at 10 µM (HOP-62): 164% | inhibition at 10 µM (CCRF-CEM): 105% | inhibition at 10 µM (SK-MEL-28): 78.8% | inhibition at 10 µM (K-562): 93.1% | inhibition at 10 µM (KM12): 78.6% | inhibition at 10 µM (SN12C): 116% | inhibition at 10 µM (SNB-75): 52% | inhibition at 10 µM (OVCAR-3): 65.8% | inhibition at 10 µM (CAKI-1): 111% | inhibition at 10 µM (PC-3): 138% | inhibition at 10 µM (T-47D): 96.1% | inhibition at 10 µM (HL-60(TB)): 126% | inhibition at 10 µM (SK-MEL-2): 79.9% | inhibition at 10 µM (UACC-257): 55.7% | inhibition at 10 µM (NCI-H522): 87.6% | inhibition at 10 µM (NCI-H23): 52.7% | inhibition at 10 µM (RPMI-8226): 113% | inhibition at 10 µM (SW-620): 137% | inhibition at 10 µM (NCI-H322M): 149% | inhibition at 10 µM (NCI-H226): 85.7%
